Measurements: patent US20220370586A1, “METHOD OF GENERATING ACTIVATED T CELLS FOR CANCER THERAPY” (Cedars-Sinai Medical Center, priority 2019, published 2022)

Legend:
T effector cells = test: T cell suppression assay (CFSE proliferation of T effector cells, FACS); type: cell-based, human; details: for effect on T effector cell proliferation (in words): T cell activation by antigen presenting cells, with or without Tregs; for increase of T cell expansion compared to T control group (without molecule): with T-reg (1:1)
Source text: PBMC was isolated (Ficoll, GE Healthcare) from the WBC cone collected from healthy platelet donor. Cells were washed and passed through 40 um cell strainer before being stained with T cell surface antibodies. Then cells were put on cell sorter (BD FACSARIA III). Specific cell populations were collected as follows: CD4^+CD25^− cells (T effector cells), CD4^+CD25^+CD45RA^+CD127^− cells (T regulatory cells) and CD3^− cells (serve as Antigen Presenting Cells, APC). T effector cells were labeled with CellTrace CFSE (Invitrogen), heavily washed before cell number counting. Effector cells and T-regs were then mixed together at 1:1 ratio in culture media (RPMI 1640, 10% FBS, Pen-Strep and 1% NEAA) which enhanced with anti-CD3 (3 ug/ml) anti-CD28 (2 ug/ml) antibodies. APCs were treated with Mitomycin (50 ug/ml) for 30 minutes at 37° C., 5% CO2 incubator, then added to culture mix (APC:T-eff 2:1) as a proliferation co-stimulator. Cell mixture was incubated at 37° C., 5% CO2 for 6 days before being re-stained with T cell surface markers (CD4, CD25) and sent for FACS analysis (FIGS. 1A-1B, 4 and 5).
Molecule 11702 and 11704 were added to treat groups respectively at a concentration gradient of 5 uM, 25 uM and 50 uM.
FACS results focus on CD4^+CD25^−CFES^+ population (T effector cells). […] As T cells proliferate and replicate, CFSE peaks extend successively to left and become less fluorescent (toward negative range). The more cell population moves to left, the stronger the proliferation.

B16 melanoma = B16 melanoma implantation in C57 BL mice; type: in vivo
Experimental: After implantation of B16 melanoma, C57 BL mice underwent treatment with 11702 GITR agonist or DMSO control. (A) Animals lived longer after GITR agonist intraperitoneal 30 mg/kg treatment twice per week (p=0.0333, log rank). (B) Tumor volume was inhibited in 11702 treated animals (p<0.05, Anova).
After implantation of B16 melanoma, C57 BL mice underwent treatment with 11702 GITR agonist or DMSO control. […] (B) Tumor volume was inhibited in 11702 treated animals (p<0.05, Anova).

## OCC1OC(Nc2ccc(-c3ccc(NC4CC(O)C(CO)O4)cc3)cc2)CC1O (stereo not shown) [RMGL171102]
T effector cells
  effect on T effector cell proliferation (in words): highly active
T effector cells; T effector without T-reg
  most effective dose to accelerate T cell proliferation: around 25 uM
T effector cells; T effector without T-reg, 5 uM
  increase of proliferated population compared to base line: 47.4%
T effector cells; T effector without T-reg, 25 uM
  increase of proliferated population compared to base line: 61.7%
T effector cells; T effector without T-reg, 50 uM
  increase of proliferated population compared to base line: 52%
T effector cells; 5 uM
  increase of T cell expansion compared to T control group (without molecule): 34.4%
T effector cells; 25 uM
  increase of T cell expansion compared to T control group (without molecule): 96.7%
T effector cells; 50 uM
  increase of T cell expansion compared to T control group (without molecule): 107.1%
B16 melanoma; intraperitoneal 30 mg/kg twice per week vs DMSO control, p=0.0333, log rank
  survival: lived longer
B16 melanoma; vs DMSO control
  PD-1 expression on activated CD4+ and effector memory CD8+ tumor infiltrating lymphocytes: increased PD-1 expression
  activated CD4+ cells among tumor infiltrating lymphocytes (FACs): increased presence
  effector memory cytotoxic CD8+ T cells among tumor infiltrating lymphocytes (FACs): increased
B16 melanoma; vs DMSO control, p<0.05, Anova
  Tumor volume: inhibited

## O=C(CCCCC(=O)NN=Cc1cccc(O)c1)NN=Cc1cccc(O)c1 [RMGL171104]
T effector cells; Homo sapiens, T-cell, T effector without T-reg, 50 uM, read-out: inhibition (decrease) of T cell proliferation
  inhibition at 50 µM: 39.1%
T effector cells; Homo sapiens, T-cell, with T-reg, 25 uM, read-out: inhibition (decrease) of T cell expanding
  inhibition at 25 µM: 33.9%
T effector cells
  effect on T effector cell proliferation (in words): dose dependent retraction of T effector cells
T effector cells; T effector without T-reg, 5 uM
  effect on T effector cells: no significant effect
T effector cells; T effector without T-reg, 25 um
  effect on T effector cells: no significant effect
T effector cells; with T-reg, 50 uM
  decrease of proliferation compared to base line: 55.9%
